In PMC3543460, “Structure-Activity Relationships of the Antimicrobial Peptide Arasin 1 — And Mode of Action Studies of the N-Terminal, Proline-Rich Region” (PLoS ONE, 2013):
Converted amounts (≈) assume the structure as drawn. Peptide text beside a SMILES is read from it. * marks the point of attachment. Acm = CC(=O)NC*

Legend:
[1] = tested on: P. aeruginosa ATCC 27853; format: cell-based, Pseudomonas aeruginosa; details: ATCC 27853, 24 h
Procedure: (§1) Escherichia coli (ATCC 25922), E. coli HB101, Pseudomonas aeruginosa (ATCC 27853), Staphylococcus aureus (ATCC 9144) and Corynebacterium glutamicum (ATCC 13032) were grown at 37°C in Mueller Hinton agar (MH; Difco Laboratories, Detroit, USA). The yeasts Candida albicans (ATCC 10231) and Saccharomyces cerevisiae spp and the mold Botrytis cinerea 101 [33] were cultivated on potato dextrose agar supplemented with 2% glucose at room temperature (RT).
(§2) Determination of the MIC against bacteria was performed by continuous monitoring of bacterial growth using a Bioscreen C microbiology reader (Labsystems Oy, Helsinki, Finland). The synthetic peptides were tested for antibacterial and antifungal activity at final concentrations (prepared from serial two-fold dilutions) ranging from 0.2 µM to 100 µM. The test was performed in 100-well flat-bottomed honeycomb plates, in which 50 µl peptide solution was incubated with 50 µl of a suspension of an actively growing culture of bacteria diluted to a starting concentration of 2.5×10^5 CFU/ml in Mueller Hinton Broth (MHB). The growth chamber was maintained at 37°C during the incubation period. The absorbance was measured by a turbidometric method with vertical light photometry and a wide band filter (420–580 nm). MIC was defined as the lowest concentration resulting in no visible bacterial growth after 24 h.

[2] = tested on: S. cerevisiae spp.; format: cell-based, Saccharomyces cerevisiae; details: 48 h
Procedure: as §1
(§3) Fungal spores were dissolved in potato dextrose broth (Difco, Lawrence, KS, USA) and the cell concentration was determined and adjusted after counting in a Bürker chamber. Botrytis cinerea was filtered through a piece of cotton before counting. An aliquot of 50 µl of fungal spores (final concentration 2×10^5 spores/ml) were inoculated in 96-well Nunclon™ microtitre plates (Nagle Nunc Int. Roskilde, Denmark) along with 50 µl of synthetic peptide dissolved in Milli-Q water. Cultures were grown in a dark moist chamber without shaking at 20°C for S. cerevisiae and B. cinerea, and at 37°C for C. albicans. Growth inhibition was determined microscopically after 48 h of incubation. Inhibitory concentrations (IC50) was defined as the lowest concentration tested which yielded less than 50% visible growth compared to the growth control (fungi). Each peptide was tested in parallels in three individual runs for the antimicrobial assays.

[3] = tested on: B. cinerea 101; format: cell-based, Botrytis cinerea; details: for IC50: 101, 48 h; for IC50 B. cinerea 101: lowest concentration tested giving less than 50% visible growth vs growth control, potato dextrose medium, 20°C, 48 h, three individual experiments
Procedure: as §1, §3

[4] = tested on: C. albicans ATCC 10231; format: cell-based, Candida albicans; details: for IC50 C. albicans ATCC 10231: lowest concentration tested giving less than 50% visible growth vs growth control, potato dextrose medium, 37°C, 48 h, three individual experiments; for IC50: ATCC 10231, 48 h
Procedure: as §1, §3

[5] = tested on: C. glutamicum ATCC 13032; format: cell-based, Corynebacterium glutamicum; details: ATCC 13032, 24 h
Procedure: as §1, §2

[6] = tested on: S. aureus ATCC 9144; format: cell-based, Staphylococcus aureus; details: ATCC 9144, 24 h
Procedure: as §1, §2

[7] = tested on: E. coli ATCC 25922; format: cell-based, Escherichia coli; details: ATCC 25922, 24 h
Procedure: as §1, §2

[8] = tested on: E. coli HB101; experiment: Antibacterial MIC assay (Bioscreen C growth monitoring); format: cell-based, Escherichia coli; details: lowest concentration with no visible bacterial growth after 24 h; 37°C, 50% MH, 2.5×10^5 cells/mL; representative of three individual experiments
Procedure: as §1, §2

SMILES | MIC P. aeruginosa ATCC 27853 [1] [µM] | IC50 [2] [µM] | IC50 [3] [µM] | IC50 C. albicans ATCC 10231 [4] [µM] | MIC C. glutamicum ATCC 13032 [5] [µM] | MIC S. aureus ATCC 9144 [6] [µM] | MIC E. coli ATCC 25922 [7] [µM] | MIC E. coli HB101 [8] [µM] | IC50 [4] [µM] | IC50 B. cinerea 101 [3] [µM]
CC[C@H](C)[C@H](NC(=O)[C@@H]1CCCN1C(=O)[C@H](CCCCN)NC(=O)[C@@H]1CCCN1C(=O)[C@H](CCCNC(=N)N)NC(=O)CNC(=O)[C@@H]1CCCN1C(=O)[C@H](Cc1ccccc1)NC(=O)[C@@H]1CCCN1C(=O)[C@H](CCCNC(=N)N)NC(=O)[C@@H]1CCCN1C(=O)[C@H](CCCNC(=N)N)NC(=O)CNC(=O)[C@@H]1CCCN1C(=O)[C@H](CO)NC(=O)[C@@H]1CCCN1C(=O)[C@H](Cc1c[nH]c2ccccc12)NC(=O)[C@H](CCCNC(=N)N)NC(=O)[C@@H](N)CO)C(=O)N[C@@H](Cc1ccccc1)C(=O)O [Arasin 1(1–20)] (H-SRWPSPGRPRPFPGRPKPIF-OH; N-terminus and C-terminus assumed) | >100 | 25 | 25 to 50 | 50 | 12.5 to 25 | >100 | >100 |  |  | 
CC[C@H](C)[C@H](NC(=O)[C@@H]1CCCN1C(=O)[C@H](CCCCN)NC(=O)[C@@H]1CCCN1C(=O)[C@H](CCCNC(=N)N)NC(=O)CNC(=O)[C@@H]1CCCN1C(=O)[C@H](Cc1ccccc1)NC(=O)[C@@H]1CCCN1C(=O)[C@H](CCCNC(=N)N)NC(=O)[C@@H]1CCCN1C(=O)[C@H](CCCNC(=N)N)NC(=O)CNC(=O)[C@@H]1CCCN1C(=O)[C@H](CO)NC(=O)[C@@H]1CCCN1C(=O)[C@@H](N)Cc1c[nH]c2ccccc12)C(=O)N[C@@H](Cc1ccccc1)C(=O)N[C@@H](CCCNC(=N)N)C(=O)N1CCC[C@H]1C(=O)N[C@@H](CCCNC(=N)N)C(N)=O [Arasin 1(3–23)] (H-WPSPGRPRPFPGRPKPIFRPR-NH2; N-terminus assumed) | 100 (≈ 250 µg/mL) | 12.5 | 25 |  | 3.1 (≈ 7.74 µg/mL) | >100 | 25 to 50 | 12.5 (≈ 31.2 µg/mL) | 25 | 
CC[C@H](C)[C@H](NC(=O)[C@@H]1CCCN1C(=O)[C@H](CCCCN)NC(=O)[C@@H]1CCCN1C(=O)[C@H](CCCNC(=N)N)NC(=O)CNC(=O)[C@@H]1CCCN1C(=O)[C@H](Cc1ccccc1)NC(=O)[C@@H]1CCCN1C(=O)[C@H](CCCNC(=N)N)NC(=O)[C@@H]1CCCN1C(=O)[C@H](CCCNC(=N)N)NC(=O)CNC(=O)[C@@H]1CCCN1C(=O)[C@H](CO)NC(=O)[C@@H]1CCCN1C(=O)[C@H](Cc1c[nH]c2ccccc12)NC(=O)[C@H](CCCNC(=N)N)NC(=O)[C@@H](N)CO)C(=O)N[C@@H](Cc1ccccc1)C(=O)N[C@@H](CCCNC(=N)N)C(=O)N1CCC[C@H]1C(=O)N[C@@H](CCCNC(=N)N)C(=O)N1CCC[C@H]1C(=O)N[C@@H](CSCNC(C)=O)C(=O)N[C@@H](CC(N)=O)C(=O)N[C@@H](CSCNC(C)=O)C(=O)N[C@@H](Cc1ccc(O)cc1)C(=O)N[C@@H](C)C(=O)N1CCC[C@H]1C(=O)N1CCC[C@H]1C(=O)N[C@@H](CSCNC(C)=O)C(=O)N1CCC[C@H]1C(=O)N[C@@H](CSCNC(C)=O)C(=O)N[C@@H](CC(=O)O)C(=O)N[C@@H](CCCNC(=N)N)C(=O)N[C@@H](Cc1c[nH]c2ccccc12)C(=O)O [Arasin 1-Acm] (H-SRWPSPGRPRPFPGRPKPIFRPRPC(Acm)NC(Acm)YAPPC(Acm)PC(Acm)DRW-OH; N-terminus and C-terminus assumed) | 100 (≈ 463 µg/mL) | 12.5 | 12.5 to 50 |  | 0.8 (≈ 3.71 µg/mL) | >100 | 25 to 50 |  | 25 | 
N=C(N)NCCC[C@H](NC(=O)[C@@H](N)CO)C(=O)N[C@@H](Cc1c[nH]c2ccccc12)C(=O)N1CCC[C@H]1C(=O)N[C@@H](CO)C(=O)N1CCC[C@H]1C(=O)NCC(=O)N[C@@H](CCCNC(=N)N)C(=O)N1CCC[C@H]1C(=O)N[C@@H](CCCNC(=N)N)C(=O)N1CCC[C@H]1C(=O)N[C@@H](Cc1ccccc1)C(=O)N1CCC[C@H]1C(=O)NCC(=O)O [Arasin 1(1–14)] (H-SRWPSPGRPRPFPG-OH; N-terminus and C-terminus assumed) | >100 | > 100 | > 100 |  | >100 | >100 | >100 |  | > 100 | 
CC[C@H](C)[C@H](NC(=O)[C@@H]1CCCN1C(=O)[C@H](CCCCN)NC(=O)[C@@H]1CCCN1C(=O)[C@H](CCCNC(=N)N)NC(=O)CNC(=O)[C@@H]1CCCN1C(=O)[C@H](Cc1ccccc1)NC(=O)[C@@H]1CCCN1C(=O)[C@H](CCCNC(=N)N)NC(=O)[C@@H]1CCCN1C(=O)[C@H](CCCNC(=N)N)NC(=O)CNC(=O)[C@@H]1CCCN1C(=O)[C@@H](N)CO)C(=O)N[C@@H](Cc1ccccc1)C(=O)N[C@@H](CCCNC(=N)N)C(=O)N1CCC[C@H]1C(=O)N[C@@H](CCCNC(=N)N)C(N)=O [Arasin 1(5–23)] (H-SPGRPRPFPGRPKPIFRPR-NH2; N-terminus assumed) | >100 | 12.5 | 25 |  | 6.3 (≈ 14 µg/mL) | >100 | >100 | 100 (≈ 221 µg/mL) | 25 | 
CC[C@H](C)[C@H](NC(=O)[C@@H]1CCCN1C(=O)[C@H](CCCCN)NC(=O)[C@@H]1CCCN1C(=O)[C@H](CCCNC(=N)N)NC(=O)CNC(=O)[C@@H]1CCCN1C(=O)[C@H](Cc1ccccc1)NC(=O)[C@@H]1CCCN1C(=O)[C@H](CCCNC(=N)N)NC(=O)[C@@H]1CCCN1C(=O)[C@H](CCCNC(=N)N)NC(=O)CN)C(=O)N[C@@H](Cc1ccccc1)C(=O)N[C@@H](CCCNC(=N)N)C(=O)N1CCC[C@H]1C(=O)N[C@@H](CCCNC(=N)N)C(N)=O [Arasin 1(7–23)] (H-GRPRPFPGRPKPIFRPR-NH2; N-terminus assumed) | 50 to 100 | 12.5 |  |  | 3.1 (≈ 6.29 µg/mL) | >100 | 50 to 100 | 25 (≈ 50.8 µg/mL) | 25 | 50
CC[C@H](C)[C@H](NC(=O)[C@@H]1CCCN1C(=O)[C@H](CCCCN)NC(=O)[C@@H]1CCCN1C(=O)[C@H](CCCNC(=N)N)NC(=O)CNC(=O)[C@@H]1CCCN1C(=O)[C@H](Cc1ccccc1)NC(=O)[C@@H]1CCCN1C(=O)[C@H](CCCNC(=N)N)NC(=O)[C@@H]1CCCN1)C(=O)N[C@@H](Cc1ccccc1)C(=O)N[C@@H](CCCNC(=N)N)C(=O)N1CCC[C@H]1C(=O)N[C@@H](CCCNC(=N)N)C(N)=O [Arasin 1(9–23)] (H-PRPFPGRPKPIFRPR-NH2; N-terminus assumed) | >100 | 25 |  | 50 | 12.5 (≈ 22.7 µg/mL) | >100 | >100 | 100 (≈ 182 µg/mL) |  | 50
